Key:
Conditions in all cases: relative to human proinsulin = 1
[1] = tested on: insulin receptor (125I-insulin binding to IM-9 cells); assay: IM-9 Radioreceptor Assay
Procedure: IM-9 cells were grown in RPMI media containing 2mM glutamine, 25 mM HEPES, and 10% fetal bovine serum. […] Incubations were carried out in 1.5 ml microfuge tubes at 15° C. for two hours. Concentrations of stock solutions containing insulin, proinsulin, or compound of this invention used in the binding studies were established by amino acid analysis and by their absorbance at 276 nm. The cells were resuspended during the assay every 30 minutes by inverting the tubes several times. At the end of the incubation, the tubes were centrifuged for one minute in a Beckman Microfuge, the supernatant was aspirated, the tips of the tubes containing the cell pellet were excised, and the radioactivity was measured.

[2] = tested on: isolated rat adipocytes; assay: Biological Activity in Isolated Rat Adipocytes (incorporation of 2-3H-glucose in total fat cell lipid); type: cell-based
Procedure: Adipocytes were prepared from epididymal fat pads by a modification (Huber, supra) of the collagenase digestion procedure of Rodbell, supra. Krebs-Ringer-HEPES (KRH) buffer, pH 7.4, containing 4% bovine serum albumin and 0.55 mM glucose was used in all isolation and incubation steps.
Biological activity was assessed according to the method of Moody, A. J., Stan, M. A., Stan, M., and Glieman, J., Horm. Metab. Res. 6, 12-16 (1974) by monitoring the incorporation of 2-^3 H-glucose in total fat cell lipid. […] Radioactivity was determined in a Searle Isocap 300 liquid scintillation counter at an efficiency of approximately 30%. Blanks were prepared in which the scintillation fluid was added to the vials prior to the addition of cells. The average counts obtained from these vials were subtracted from those observed in all other samples.
Competitive binding curves and biological activity dose-response curves were analyzed using the PREFIT and ALLFIT programs [DeLean, A., Munson, P. J., and Rodbard, D., Am. J. Physiol. 235, E97-E102 (1978)] based on a four-parameter logistic model. These analyses indicated the concentration of insulin or proinsulin necessary to produce a half-maximal response, as well as the maximal and minimal values. All values are presented as the mean ± SEM.

[3] = tested on: insulin receptor (125I-labeled insulin binding to isolated fat cells); assay: Isolated Fat Cell Radioreceptor Assay
Procedure: Isolated fat cells were prepared by a modification [Huber, C. T., Solomon, S. S., and Duckworth, W. C., J. Clin. Invest. […] All incubations were in Krebs-Ringer-Hepes (KRH) buffer, pH 7.4, with 4% bovine serum albumin (BSA) in a total volume of 2 ml. […] At selected times, triplicate 300 μl aliquots were removed and added to microfuge tubes containing 100 μl dinonyl phthalate [see Gliemann, J., Osterlind, K., Vinten, J., and Gammeltoft, S., Biochem. Biophys. Acta. […] After centrifugation for one minute in a microfuge, the tubes were cut through the oil layer, and the cell pellet was counted using a gamma counter to determine binding.

Measured: Relative Potency

Human Proinsulin
1: all assays above
